The compounds below were run on apyrase (assay: Screen for apyrase inhibitors (Method 1, in vitro phosphate-release absorbance assay)). Details: inhibitor conc at 1 mM stock, 1 hr room temperature, absorbance 630 nm; rounded average of two assay results.
Type: biochemical
Experimental: Apyrase inhibitors useful as enhancers of pesticidal activity are assessed using an in vitro assay. The method of Windsor, Bio Techniques 33:1024-1030 (November 2002) was used as follows Screen for Apyrase Inhibitors- 96 well plates were used for the assay: (Greiner bio-one: REF-655901-96 well, PS, F-bottom, Clear, Non-binding) Buffers: • Reaction Buffer: 60 mM Hepes; 3 mM MgCl2, 3 mM CaCl2 and 3 mM ATP (pH 6.5) • Development Buffer A: 2% aqueous ammonium molybdate • Development Buffer B: 11% ascorbic acid in 37.5% TCA in water • Stop buffer C: 2% trisodium citrate in 2% acetic acid solution in water • Add 100 μl of reaction buffer to each well. • Add 10 μl of DMSO (control) or inhibitor/compound or compounds such as […] or orthovanadate to each well. […] A blank cell indicates either <10% observed inhibition or a large difference between repetitions. In certain examples, the lack of observed inhibition is due to a lack of solubility of the compound under assay conditions, rather than a lack of apyrase inhibitory activity.

Compared with COc1ccc(NS(=O)(=O)c2cccc(C(=O)N3c4ccccc4CC3C)c2)cc1 (centres unmarked) [I-435, N-(4-methoxyphenyl)-3-(2-methylindoline-1-carbonyl)benzenesulfonamide], COc1ccc(C(=O)N2c3ccccc3CC2C)cc1S(=O)(=O)Nc1ccc(C)cc1 (centres unmarked) [I-545, 2-methoxy-5-(2-methylindoline-1-carbonyl)-N-(p-tolyl)benzenesulfonamide] is lower in “% Inhibition of Apyrase” value: 64% for the first, 53% for the second.

Going from CCOc1ncccc1C(=O)Nc1cccc(S(=O)(=O)N(C)c2ccccc2)c1 [I-711, 2-ethoxy-N-(3-(N-methyl-N-phenylsulfamoyl)phenyl)nicotinamide] to CN(c1ccccc1)S(=O)(=O)c1cccc(NC(=O)c2ccsc2)c1 [I-716, N-(3-(N-methyl-N-phenylsulfamoyl)phenyl)thiophene-3-carboxamide], the “% Inhibition of Apyrase” value falls from 60% to 58%.

Going from O=C(Nc1ccc(F)c(F)c1)c1cccc(S(=O)(=O)Nc2ccc3c(c2)OCO3)c1 [I-220, 3-(N-(benzo[d][1,3]dioxol-5-yl)sulfamoyl)-N-(3,4-difluorophenyl)benzamide] to COc1ccc(NC(=O)c2cccc(S(=O)(=O)Nc3ccc4c(c3)OCO4)c2)cc1OC [I-277, 3-(N-(benzo[d][1,3]dioxol-5-yl)sulfamoyl)-N-(3,4-dimethoxyphenyl)benzamide], the “% Inhibition of Apyrase” value falls from 68% to 44%.

Compared with O=C(Nc1ccc(S(=O)(=O)Nc2ncccn2)cc1)c1cccc(S(=O)(=O)N2CCc3ccccc32)c1 [I-554, 3-(indolin-1-ylsulfonyl)-N-(4-(N-(pyrimidin-2-yl)sulfamoyl)phenyl)benzamide], CN(C)S(=O)(=O)c1cccc(NC(=O)c2cccc(S(=O)(=O)N3CCc4ccccc43)c2)c1 [I-550, N-(3-(N,N-dimethylsulfamoyl)phenyl)-3-(indolin-1-ylsulfonyl)benzamide] is higher in “% Inhibition of Apyrase” value: 52% for the first, 53% for the second.

Going from CCOc1ccc(NC(=O)c2cc(S(=O)(=O)N3CCc4ccccc43)ccc2OC)cc1 [I-581, N-(4-ethoxyphenyl)-5-(indolin-1-ylsulfonyl)-2-methoxybenzamide] to COc1cccc(NC(=O)c2ccc(Cl)c(S(=O)(=O)N3CCc4ccccc43)c2)c1 [I-500, 4-chloro-3-(indolin-1-ylsulfonyl)-N-(3-methoxyphenyl)benzamide], the “% Inhibition of Apyrase” value rises from 47% to 57%.

Going from COc1ccc(NC(=O)c2cccc(NS(=O)(=O)c3cc(Cl)ccc3Cl)c2)cn1 [I-654, 3-((2,5-dichlorophenyl)sulfonamido)-N-(6-methoxypyridin-3-yl)benzamide] to O=C(Nc1nccs1)c1cccc(NS(=O)(=O)c2cc(Cl)ccc2Cl)c1 [I-639, 3-((2,5-dichlorophenyl)sulfonamido)-N-(thiazol-2-yl)benzamide], the “% Inhibition of Apyrase” value rises from 42% to 56%.

Going from Cc1cc(F)c2c(c1)CCCN2C(=O)c1cccc(S(=O)(=O)N2CCc3ccccc32)c1 [I-493, (8-fluoro-6-methyl-3,4-dihydroquinolin-1(2H)-yl)(3-(indolin-1-ylsulfonyl)phenyl)methanone] to Cc1cccc2c1N(C(=O)c1cccc(S(=O)(=O)N3CCc4ccccc43)c1)CCC2 [I-510, (3-(indolin-1-ylsulfonyl)phenyl)(8-methyl-3,4-dihydroquinolin-1(2H)-yl)methanone], the “% Inhibition of Apyrase” value falls from 58% to 56%.

Compared with O=C(Nc1cccc(NS(=O)(=O)c2ccc(Cl)cc2)c1)c1cc(F)ccc1F [I-212, N-(3-((4-chlorophenyl)sulfonamido)phenyl)-2,5-difluorobenzamide], O=C(Nc1cccc([N+](=O)[O-])c1)c1cc(S(=O)(=O)Nc2cccc(F)c2)ccc1Cl [I-11, 2-chloro-5-(N-(3-fluorophenyl)sulfamoyl)-N-(3-nitrophenyl)benzamide] is lower in “% Inhibition of Apyrase” value: 69% for the first, 60% for the second.

Going from COc1ccccc1NS(=O)(=O)c1ccc(C(=O)Nc2cccc(C(F)(F)F)c2)cc1 [I-410, 4-(N-(2-methoxyphenyl)sulfamoyl)-N-(3-(trifluoromethyl)phenyl)benzamide] to N#Cc1cccc(S(=O)(=O)Nc2cccc(C(=O)Nc3cccc(C(F)(F)F)c3)c2)c1 [I-196, 3-((3-cyanophenyl)sulfonamido)-N-(3-(trifluoromethyl)phenyl)benzamide], the “% Inhibition of Apyrase” value rises from 29% to 74%.

Compared with O=C(Nc1ccc2c(c1)OC1(CCCC1)O2)c1ccc(NS(=O)(=O)c2ccccc2)cc1 [I-908, 4-(phenylsulfonamido)-N-(spiro[benzo[d][1,3]dioxole-2,1′-cyclopentan]-5-yl)benzamide], O=C(Nc1ccccc1)c1cccc(S(=O)(=O)Nc2ccc3c(c2)OCO3)c1 [I-264, 3-(N-(benzo[d][1,3]dioxol-5-yl)sulfamoyl)-N-phenylbenzamide] is lower in “% Inhibition of Apyrase” value: 61% for the first, 59% for the second.

First: O=C(Nc1cccc(C(F)(F)F)c1)c1ccccc1S(=O)(=O)N1CCCCC1 [I-356, 2-(piperidin-1-ylsulfonyl)-N-(3-(trifluoromethyl)phenyl)benzamide]
Second: O=C(Nc1cccc(S(=O)(=O)Nc2cccc(C(F)(F)F)c2)c1)c1cc2c(s1)CCCC2 [I-724, N-(3-(N-(3-(trifluoromethyl)phenyl)sulfamoyl)phenyl)-4,5,6,7-tetrahydrobenzo[b]thiophene-2-carboxamide]
The “% Inhibition of Apyrase” value of the first is lower: 10% for the first, 57% for the second.

Going from O=C(Nc1ccccc1NS(=O)(=O)c1cccs1)c1ccc(Cl)cc1F [I-837, 4-chloro-2-fluoro-N-(2-(thiophene-2-sulfonamido)phenyl)benzamide] to O=C(Nc1ccccc1NS(=O)(=O)c1cccs1)c1ccc(C(F)(F)F)cc1 [I-836, N-(2-(thiophene-2-sulfonamido)phenyl)-4-(trifluoromethyl)benzamide], the “% Inhibition of Apyrase” value rises from 35% to 49%.

Compared with CN(c1ccccc1)S(=O)(=O)c1cccc(NC(=O)c2ccc(Br)o2)c1 [I-722, 5-bromo-N-(3-(N-methyl-N-phenylsulfamoyl)phenyl)furan-2-carboxamide], O=C(Nc1cccc(S(=O)(=O)Nc2cccc(C(F)(F)F)c2)c1)c1ccco1 [I-759, N-(3-(N-(3-(trifluoromethyl)phenyl)sulfamoyl)phenyl) furan-2-carboxamide] is lower in “% Inhibition of Apyrase” value: 57% for the first, 28% for the second.

Going from Cc1cc(F)ccc1S(=O)(=O)Nc1ccc(C(=O)Nc2cccc(C#N)c2)cc1 [I-959, N-(3-cyanophenyl)-4-((4-fluoro-2-methylphenyl)sulfonamido)benzamide] to Cc1ccc(C)c(S(=O)(=O)Nc2ccc(C(=O)Nc3cccc(C#N)c3)cc2)c1 [I-954, N-(3-cyanophenyl)-4-((2,5-dimethylphenyl)sulfonamido)benzamide], the “% Inhibition of Apyrase” value rises from 17% to 25%.

Going from O=C(Nc1ccc(S(=O)(=O)Nc2ccccc2Cl)cc1)c1ccc2c(c1)OCCO2 [I-994, N-(4-(N-(2-chlorophenyl)sulfamoyl)phenyl)-2,3-dihydrobenzo[b][1,4]dioxine-6-carboxamide] to O=C(Nc1ccc2c(c1)OCCCO2)c1cccc(S(=O)(=O)N2CCc3ccccc32)c1 [I-609, N-(3,4-dihydro-2H-benzo[b][1,4]dioxepin-7-yl)-3-(indolin-1-ylsulfonyl)benzamide], the “% Inhibition of Apyrase” value falls from 47% to 13%.

First: Cc1nc2cc(NC(=O)c3cccc(S(=O)(=O)N4c5ccccc5CC4C)c3)ccc2o1 (centres unmarked) [I-583, N-(2-methylbenzo[d]oxazol-5-yl)-3-((2-methylindolin-1-yl)sulfonyl)benzamide]
Second: Cc1nc2cc(NC(=O)c3cccc(S(=O)(=O)Nc4ccc(Br)cc4)c3)ccc2o1 [I-256, 3-(N-(4-bromophenyl)sulfamoyl)-N-(2-methylbenzo[d]oxazol-5-yl)benzamide]
The “% Inhibition of Apyrase” value of the first is lower: 47% for the first, 61% for the second.

Going from Cc1cccc(NC(=O)c2ccc(Cl)c(S(=O)(=O)N3CCc4ccccc43)c2)c1 [I-555, 4-chloro-3-(indolin-1-ylsulfonyl)-N-(m-tolyl)benzamide] to CC(=O)c1cc2c(cc1NC(=O)c1cccc(S(=O)(=O)N3CCc4ccccc43)c1)OCO2 [I-584, N-(6-acetylbenzo[d][1,3]dioxol-5-yl)-3-(indolin-1-ylsulfonyl)benzamide], the “% Inhibition of Apyrase” value falls from 52% to 46%.

Going from COc1ccc(C(=O)Nc2cccc(Cl)c2)cc1S(=O)(=O)Nc1ccc(Br)cc1 [I-15, 3-(N-(4-bromophenyl)sulfamoyl)-N-(3-chlorophenyl)-4-methoxybenzamide] to O=C(Nc1cccc([N+](=O)[O-])c1)c1cccc(S(=O)(=O)Nc2ccc(F)cc2)c1 [I-31, 3-(N-(4-fluorophenyl)sulfamoyl)-N-(3-nitrophenyl)benzamide], the “% Inhibition of Apyrase” value falls from 55% to 21%.

First: CCOc1ccc(NC(=O)c2cccc(S(=O)(=O)Nc3ccc4c(c3)OCO4)c2)cc1OC [I-586, 3-(N-(benzo[d][1,3]dioxol-5-yl)sulfamoyl)-N-(4-ethoxy-3-methoxyphenyl)benzamide]
Second: O=C(Nc1ccccc1N1CCCC1)c1cccc(S(=O)(=O)N2CCc3ccccc32)c1 [I-492, 3-(indolin-1-ylsulfonyl)-N-(2-(pyrrolidin-1-yl)phenyl)benzamide]
The “% Inhibition of Apyrase” value of the first is lower: 44% for the first, 58% for the second.
